Source: patent US11357246B2, “High intensity sweeteners” (Firmenich Incorporated, priority 2015, dated 2022)

These molecules were tested against T1, hT1R2/hT1R3 (Homo sapiens, UniProt Q7RTX0+Q8TE23) (assay: HTS-Sweet: FLIPR calcium fluorometric imaging assay in cells stably expressing the human sweet taste receptor and a promiscuous G protein). Conditions: not given.
T1 construct: expressed in transfected cells; parental cells lack the receptor
T1 sequence (Q8TE23 20-839): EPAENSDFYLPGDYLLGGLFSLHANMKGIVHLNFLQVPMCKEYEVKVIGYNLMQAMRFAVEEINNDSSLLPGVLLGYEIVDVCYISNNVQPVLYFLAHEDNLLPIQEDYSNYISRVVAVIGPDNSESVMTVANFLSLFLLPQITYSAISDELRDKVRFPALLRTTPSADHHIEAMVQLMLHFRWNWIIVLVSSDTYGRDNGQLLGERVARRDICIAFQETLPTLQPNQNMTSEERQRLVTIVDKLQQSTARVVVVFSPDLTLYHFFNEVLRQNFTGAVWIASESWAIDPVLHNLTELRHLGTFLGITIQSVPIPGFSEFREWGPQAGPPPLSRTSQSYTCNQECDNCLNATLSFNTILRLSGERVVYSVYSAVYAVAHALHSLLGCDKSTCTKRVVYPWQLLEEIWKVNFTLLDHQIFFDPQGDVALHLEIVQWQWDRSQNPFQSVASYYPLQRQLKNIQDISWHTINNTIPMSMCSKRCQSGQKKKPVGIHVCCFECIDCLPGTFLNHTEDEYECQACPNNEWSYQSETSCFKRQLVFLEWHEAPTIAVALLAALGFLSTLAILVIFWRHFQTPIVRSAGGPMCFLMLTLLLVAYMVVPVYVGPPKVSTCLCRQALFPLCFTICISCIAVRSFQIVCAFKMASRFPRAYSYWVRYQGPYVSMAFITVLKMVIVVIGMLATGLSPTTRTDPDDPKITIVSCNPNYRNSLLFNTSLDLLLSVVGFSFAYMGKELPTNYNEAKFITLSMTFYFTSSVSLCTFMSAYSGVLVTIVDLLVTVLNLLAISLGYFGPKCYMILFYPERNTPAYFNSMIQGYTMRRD
T1 sequence (Q7RTX0 21-852): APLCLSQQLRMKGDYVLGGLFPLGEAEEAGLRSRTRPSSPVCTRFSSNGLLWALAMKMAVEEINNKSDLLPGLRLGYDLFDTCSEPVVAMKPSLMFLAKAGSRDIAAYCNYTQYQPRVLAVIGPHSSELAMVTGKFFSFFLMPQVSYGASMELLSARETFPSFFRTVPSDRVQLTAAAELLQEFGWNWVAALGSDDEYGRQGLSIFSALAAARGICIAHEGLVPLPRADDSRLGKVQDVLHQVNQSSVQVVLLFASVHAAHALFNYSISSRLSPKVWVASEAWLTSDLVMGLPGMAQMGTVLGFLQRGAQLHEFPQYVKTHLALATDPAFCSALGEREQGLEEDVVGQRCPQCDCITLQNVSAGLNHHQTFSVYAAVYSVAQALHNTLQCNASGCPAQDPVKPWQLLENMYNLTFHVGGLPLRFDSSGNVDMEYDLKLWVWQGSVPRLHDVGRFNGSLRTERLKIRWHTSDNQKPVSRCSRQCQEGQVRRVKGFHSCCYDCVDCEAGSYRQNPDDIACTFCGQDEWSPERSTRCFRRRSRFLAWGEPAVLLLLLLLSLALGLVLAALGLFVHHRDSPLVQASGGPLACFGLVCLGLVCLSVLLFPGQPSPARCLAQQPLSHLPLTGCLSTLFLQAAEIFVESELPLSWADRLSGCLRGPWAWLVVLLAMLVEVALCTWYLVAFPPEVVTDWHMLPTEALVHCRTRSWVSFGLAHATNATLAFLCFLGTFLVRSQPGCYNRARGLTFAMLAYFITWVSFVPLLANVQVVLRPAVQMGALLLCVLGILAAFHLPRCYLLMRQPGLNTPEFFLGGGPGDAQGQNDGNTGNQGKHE
Format: cell-based
Protocol: Compound activity (EC50) was determined using an automated fluorometric imaging assay on a FLIPR instrument (Fluorometric […] Plate Reader, Molecular Devices, Sunnyvale, Calif.). Cell stably expressing the human sweet taste receptor and a promiscuous G protein were seeded into 384-well plates (at approximately 40,000 cells per well). Cells were grown for 24 hours at 37° C. Cells were then loaded with the calcium dye Fluo-4AM (Molecular Probes, Eugene, Oreg.), 4 μM in a phosphate buffered saline (D-PBS) (Invitrogen, Carlsbad, Calif.), for 1 hour at room temperature. After replacement with 25 μl D-PBS, stimulation was performed in the FLIPR instrument and at room temperature by the addition of 25 μl D-PBS supplemented with different stimuli at concentrations corresponding to twice the desired final level. Receptor activity was quantified by determining the maximal fluorescence increases (using a 480 nm excitation and 535 nm emission) after normalization to basal fluorescence intensity measured before stimulation.
For dose-responses analysis, stimuli were presented in duplicates at 10 different concentrations ranging from 0.4 μM to 200 μM. EC50 s were determined using a non-linear regression algorithm, where the Hill slope, bottom asymptotes and top asymptotes were allowed to vary.
Work on CC(CCC(OC1OC(COC2OC(CO)C(O)C(O)C2O)C(O)C(O)C1OC1OC(CO)C(O)C(O)C1O)C(C)(C)O)C1CCC2(C)C3CC=C4C(CCC(OC5OC(COC6OC(CO)C(O)C(O)C6O)C(O)C(O)C5O)C4(C)C)C3(C)C(O)CC12C (stereo not drawn) [Compound 12] yielded an EC50 of 17 to 30 µM.
C[C@H](CC[C@@H](O[C@@H]1O[C@H](CO[C@H]2O[C@H](CO)[C@@H](O)[C@H](O)[C@H]2O)[C@@H](O)[C@H](O)[C@H]1O[C@@H]1O[C@H](CO)[C@@H](O)[C@H](O)[C@H]1O)C(C)(C)O)C1CC[C@@]2(C)C3CC=C4C(CC[C@H](O[C@@H]5O[C@H](CO[C@H]6O[C@H](CO)[C@@H](O)[C@H](O)[C@H]6O)[C@@H](O)[C@H](O)[C@H]5O)C4(C)C)[C@]3(C)[C@H](O)C[C@]12C (stereo partly drawn) [Compound 4] gave an EC50 of under 17 µM.
In the case of C[C@H](CC[C@@H](O[C@@H]1O[C@H](CO[C@H]2O[C@H](CO)[C@@H](O)[C@H](O)[C@H]2O)[C@@H](O)[C@H](O)[C@H]1O[C@@H]1O[C@H](CO)[C@@H](O)[C@H](O)[C@H]1O)C(C)(C)O)C1CC[C@@]2(C)C3CC=C4C(CC[C@H](O[C@@H]5O[C@H](CO[C@@H]6O[C@H](CO)[C@@H](O)[C@H](O)[C@H]6O)[C@@H](O)[C@H](O)[C@H]5O)C4(C)C)[C@]3(C)[C@H](O)C[C@]12C (stereo partly drawn) [Compound 23], the EC50 is reported as under 17 µM.
Molecule C[C@H](CC[C@@H](O[C@@H]1O[C@H](CO[C@H]2O[C@H](CO)[C@@H](O)[C@H](O)[C@H]2O)[C@@H](O)[C@H](O)[C@H]1O[C@@H]1O[C@H](CO)[C@@H](O)[C@H](O)[C@H]1O)C(C)(C)O)C1CC[C@@]2(C)C3CC=C4C(CC[C@H](O[C@@H]5O[C@H](CO)[C@@H](O)[C@H](O)[C@H]5O)C4(C)C)[C@]3(C)[C@H](O)C[C@]12C (stereo partly drawn) [Compound 3] has an EC50 of under 17 µM.

Same assay, conditions: FLIPR, Fluo-4AM, 10 concentrations 0.4 μM to 200 μM in duplicates; read-out: Compound EC50s for hT1R2/hT1R3
Molecule C[C@H](CC[C@@H](O[C@@H]1O[C@H](CO[C@H]2O[C@H](CO)[C@@H](O)[C@H](O)[C@H]2O)[C@@H](O)[C@H](O)[C@H]1O[C@@H]1O[C@H](CO)[C@@H](O[C@H]2O[C@H](CO)[C@@H](O)[C@H](O)[C@H]2O)[C@H](O)[C@H]1O)C(C)(C)O)C1CC[C@@]2(C)C3CC=C4C(CC[C@H](O)C4(C)C)[C@]3(C)[C@H](O)C[C@]12C (stereo partly drawn) [Compound 16] has an EC50 of 17 to 30 µM.
C[C@H](CC[C@@H](O[C@@H]1O[C@H](CO[C@@H]2O[C@H](CO)[C@@H](O)[C@H](O)[C@H]2O)[C@@H](O)[C@H](O)[C@H]1O[C@@H]1O[C@H](CO)[C@@H](O)[C@H](O)[C@H]1O)C(C)(C)O)C1CC[C@@]2(C)C3CC=C4C(CC[C@H](O[C@@H]5O[C@H](CO[C@H]6O[C@H](CO[C@H]7O[C@@H](CO)[C@H](O)[C@@H](O)[C@@H]7O)[C@@H](O)[C@H](O)[C@H]6O)[C@@H](O)[C@H](O)[C@H]5O)C4(C)C)[C@]3(C)[C@H](O)C[C@]12C (stereo partly drawn) [Compound 2] showed an EC50 of 17 to 30 µM.
Work on C[C@H](CC[C@@H](O[C@@H]1O[C@H](CO)[C@@H](O)[C@H](O)[C@H]1O[C@@H]1O[C@H](CO)[C@@H](O)[C@H](O)[C@H]1O)C(C)(C)O)C1CC[C@@]2(C)C3CC=C4C(CC[C@H](O[C@@H]5O[C@H](CO[C@H]6O[C@H](COC7O[C@H](CO)[C@@H](O)[C@H](O)[C@H]7O)[C@@H](O)[C@H](O)[C@H]6O)[C@@H](O)[C@H](O)[C@H]5O)C4(C)C)[C@]3(C)[C@H](O)C[C@]12C (stereo partly drawn) [Compound 33] yielded an EC50 of over 30 µM.
Molecule C[C@H](CC[C@@H](O[C@@H]1O[C@H](CO[C@@H]2O[C@H](CO)[C@@H](O)[C@H](O)[C@H]2O)[C@@H](O[C@@H]2O[C@H](CO)[C@@H](O)[C@H](O)[C@H]2O)[C@H](O)[C@H]1O)C(C)(C)O)C1CC[C@@]2(C)C3CC=C4C(CC[C@H](O[C@@H]5C[C@H](COC6O[C@H](CO)[C@@H](O)[C@H](O)[C@H]6O)[C@@H](O)[C@H](O)[C@H]5O)C4(C)C)[C@]3(C)C(=O)C[C@]12C (stereo partly drawn) [Compound 29] has an EC50 of over 30 µM.
In the case of C[C@H](CC[C@@H](O[C@@H]1O[C@H](CO[C@H]2O[C@H](CO)[C@@H](O)[C@H](O)[C@H]2O)[C@@H](O)[C@H](O)[C@H]1O[C@@H]1O[C@H](CO)[C@@H](O)[C@H](O)[C@H]1O)C(C)(C)O)C1CC[C@@]2(C)C3CC=C4C(CC[C@H](O[C@@H]5O[C@H](CO)[C@@H](O)[C@H](O)[C@H]5O)C4(C)C)[C@]3(C)C(=O)C[C@]12C (stereo partly drawn) [Compound 11], the EC50 is reported as over 30 µM.
C[C@H](CC[C@@H](O[C@@H]1O[C@H](CO)[C@@H](O[C@@H]2O[C@H](CO)[C@@H](O)[C@H](O)[C@H]2O)[C@H](O)[C@H]1O[C@@H]1O[C@H](CO)[C@@H](O)[C@H](O)[C@H]1O)C(C)(C)O)C1CC[C@@]2(C)C3CC=C4C(CC[C@H](O)C4(C)C)[C@]3(C)[C@H](O)C[C@]12C (stereo partly drawn) [Compound 35] was tested, and the EC50 was 17 to 30 µM.
In the case of C[C@H](CC[C@@H](O[C@@H]1O[C@H](CO)[C@@H](O)[C@H](O)[C@H]1O[C@@H]1O[C@H](CO)[C@@H](O[C@@H]2O[C@H](CO)[C@@H](O)[C@H](O)[C@H]2O)[C@H](O)[C@H]1O)C(C)(C)O)C1CC[C@@]2(C)C3CC=C4C(CC[C@H](O[C@@H]5O[C@H](CO)[C@@H](O)[C@H](O)[C@H]5O)C4(C)C)[C@]3(C)[C@H](O)C[C@]12C (stereo partly drawn) [Compound 13], the EC50 is reported as 17 to 30 µM.
C[C@H](CC[C@@H](O[C@@H]1O[C@H](CO[C@H]2O[C@H](CO)[C@@H](O)[C@H](O)[C@H]2O)[C@@H](O)[C@H](O)[C@H]1O[C@@H]1O[C@H](CO)[C@@H](O)[C@H](O)[C@H]1O)C(C)(C)O)C1CC[C@@]2(C)C3CC=C4C(CC[C@H](O[C@@H]5O[C@H](CO)[C@@H](O[C@H]6O[C@H](CO)[C@@H](O)[C@H](O)[C@H]6O)[C@H](O)[C@H]5O)C4(C)C)[C@]3(C)[C@H](O)C[C@]12C (stereo partly drawn) [Compound 5] showed an EC50 of 17 to 30 µM.
Work on C[C@H](CC[C@@H](O[C@@H]1O[C@H](CO[C@@H]2O[C@H](CO[C@@H]3O[C@H](CO)[C@@H](O)[C@H](O)[C@H]3O)[C@@H](O)[C@H](O)[C@H]2O)[C@@H](O)[C@H](O)[C@H]1O[C@@H]1O[C@H](CO)[C@@H](O)[C@H](O)[C@H]1O)C(C)(C)O)C1CC[C@@]2(C)C3CC=C4C(CC[C@H](O[C@@H]5O[C@H](COC6O[C@H](CO)[C@@H](O)[C@H](O)[C@H]6O)[C@@H](O)[C@H](O)[C@H]5O)C4(C)C)[C@]3(C)[C@H](O)C[C@]12C (stereo partly drawn) [Compound 30] yielded an EC50 of over 30 µM.
C[C@H](CC[C@@H](O[C@@H]1O[C@H](CO)[C@@H](O)[C@H](O)[C@H]1O[C@@H]1O[C@H](CO)[C@@H](O[C@H]2O[C@H](CO)[C@@H](O)[C@H](O)[C@H]2O)[C@H](O)[C@H]1O)C(C)(C)O)C1CC[C@@]2(C)C3CC=C4C(CC[C@H](O[C@@H]5O[C@H](CO)[C@@H](O)[C@H](O)[C@H]5O)C4(C)C)[C@]3(C)[C@H](O)C[C@]12C (stereo partly drawn) [Compound 9] was tested, and the EC50 was 17 to 30 µM.
With C[C@H](CC[C@@H](O[C@@H]1O[C@H](CO)[C@@H](O)[C@H](O)[C@H]1O[C@@H]1O[C@H](CO)[C@@H](O)[C@H](O)[C@H]1O)C(C)(C)O)C1CC[C@@]2(C)C3CC=C4C(CC[C@H](O[C@@H]5O[C@H](CO[C@@H]6O[C@H](CO)[C@@H](O)[C@H](O)[C@H]6O)[C@@H](O)[C@H](O)[C@H]5O[C@H]5O[C@@H](CO)[C@H](O)[C@@H](O)[C@@H]5O)C4(C)C)[C@]3(C)[C@H](O)C[C@]12C (stereo partly drawn) [Compound 32] the EC50 was over 30 µM.
